Entries after “also recorded” stand apart in the source; their conditions may differ.
Key:
[1] = test system: OVA-induced allergic mice; assay: OVA-induced allergic airway inflammation model; assay type: in vivo, mouse; settings: 20 mg/kg intraperitoneally every day from day 0 to 6, versus vehicle control
Description: C57BL/6 mice at 7 weeks old were immunized intraperitoneally with 100 µg OVA (Cat#A5503, Sigma) in 2 % aluminium hydroxide gel (Cat#vax-alu-250, InvivoGen) on day 0. The mice were challenged intranasally with 100 µg OVA in saline on days 7, 8 and 9. Pyrrothiogatain was administrated intraperitoneally at a concentration of 20 mg/kg in PBS every day from day 0 to 6. The day after the last OVA challenge, BAL fluid cells were subjected to histological examination using the Diff Quick stain (Cat#16920, Sysmex). All animal experiments received approval from the Ehime University Administrative Panel for Animal Care. All animal care was conducted in accordance with the guidelines of Ehime University.

Th2 cells = assay: Cytokine production of in vitro differentiated Th2 cells restimulated for 16 h (ELISA); assay type: cell-based, mouse; settings: restimulated 16 h, 0 to 100 µM
Description: To clarify the effects of pyrrothiogatain on Th2 cell differentiation, naive CD4 T cells were purified and cultured under Th2 conditions in the presence or absence of pyrrothiogatain for 5 days, and then the Th2 cell differentiation status was determined by intracellular staining. The generation of IL-4-, IL-5-, and IL-13-producing Th2 cells was repressed by treatment with pyrrothiogatain (Fig. 5A). Decreased production and mRNA expression of IL-4, IL-5 and IL-13 were confirmed using ELISA and RT-qPCR, respectively (Fig. 5B,C). […] Next, we treated in vitro differentiated Th2 cells with pyrrothiogatain to test the effect of pyrrothiogatain on Th2 cytokine production. Total CD4^+ cells were cultured under Th2 conditions for 5 days, and then the Th2 cells were restimulated in the presence or absence of pyrrothiogatain for 16 h. […]
Figure 5 Pyrrothiogatain inhibits Th2 cell differentiation and production of Th2 cytokines. […] (B) Cytokine production induced in the pyrrothiogatain treated Th2 cells shown in panel (A) was determined by ELISA. (C) Quantitative RT-PCR analysis of the pyrrothiogatain-treated Th2 cells shown in panel (A). […] The amounts of IL-4, IL-5 and IL-13 in the culture supernatants were determined by ELSA. In (B), (C) and (E), all data are expressed as individual points of three independent experiments with error bars indicating standard deviation. […]

GATA3 expression = assay: Immunoblot of GATA3, naive CD4+ T cells under Th2 conditions; assay type: cell-based, mouse; settings: 80 µM, 5 days
Description: Figure 5 Pyrrothiogatain inhibits Th2 cell differentiation and production of Th2 cytokines. (A) Intracellular staining of IL-5/IL-13, IL-4/IFN-γ, and IL-2/IFN-γ in naive CD4^+ T cells cultured under Th2 conditions in the presence or absence of pyrrothiogatain (30 and 80 µM) for five days. (B) Cytokine production induced in the pyrrothiogatain treated Th2 cells shown in panel (A) was determined by ELISA. (C) Quantitative RT-PCR analysis of the pyrrothiogatain-treated Th2 cells shown in panel (A). (D) Immunoblot analysis of GATA3 in naive CD4^+ T cells cultured under Th2 conditions in the presence or absence of pyrrothiogatain (80 µM) for 5 days. (E) Cytokine production from Th2 cells stimulated with immobilized anti-TCRβ mAb for 16 h in the presence or absence of pyrrothiogatain (0 to 100 µM). The amounts of IL-4, IL-5 and IL-13 in the culture supernatants were determined by ELSA. In (B), (C) and (E), all data are expressed as individual points of three independent experiments with error bars indicating standard deviation. […]

Cc1ccc(C)n1-c1ccsc1C(=O)O [Pyrrothiogatain, 3-(2,5-dimethyl-1H-pyrrol-1-yl)thiophene-2-carboxylic acid]
Number of inflammatory cells in the bronchoalveolar lavage (BAL) fluid [1]: no significant difference; also recorded: did not significantly decrease
IL-4, IL-5 and IL-13 production of restimulated Th2 cells (Th2 cells): decreased
Expression of GATA3, protein level (GATA3 expression): not influenced
